{"source": "patent US20240116994A1", "about": "“Peptides And Use Thereof For Diagnosing And Treating Antiphospholipid Syndrome” (UNIVERSITE DE GENEVE, priority 2021, published 2024)", "key": {"[1]": {"test_system": "aPL from a pool of 13 Human patients", "assay": "Surface plasmon resonance, aPL flown over biotin-peptide-coated SA chip (BIAcore X100)", "type": "binding", "experimental": "The kinetics and affinity of protein-protein and protein-lipid interactions were determined using a BIAcore X100 instrument. 1 mg/ml of biotin-tagged peptide (ligand) was immobilized using a sensor chip SA (GE Healthcare) surface, whereas aPL from a pool of 13 Human patients were flown as analyte. The first flow cell of the sensor chip was used as a control surface (no protein), whereas the second flow cell was employed as the active surface. A range of dilution of aPL analytes prepared in the same buffer was injected on both flow cell surfaces at a flow rate of 30 μl/min. Association and dissociation times for each protein injection were set at 90 and 120 s, respectively. In all cases, sensorgrams were obtained from three different dilutions of aPL.\n(§1) The de Groot's research group has pointed at the importance of hydrophobic character of the plate during coating of R39-R43 epitope. In order to abrogate of the plate-dependent aPL binding, the Ia-1 and Ib-1 peptides as well as the R39-R43 with a biotin at their N-terminal were synthetized and coated a streptavidin plate. In this configuration, the different peptides are flag oriented in the space preventing any interaction with the plate. It was thus observed that the flag-type orientation of R39-R43-biot leads to 8.52×more interaction with aPL while they show 9.63×more binding for Ib-1-biot presenting the same position. […] The surface plasmon resonance (SPR) technique is used to determine the relative avidity of aPL for R39-R43-biot and Ib-1-biot. The interaction between aPL and immobilized R39-R43-biot or Ib-1-biot is monitored by flowing various concentrations of aPL over a R39-R43-biot- or Ib-1-biot-coated chip surface (FIG. 1C). Through SPR experiments, it appears that aPL avidity for Ib-1-biot presents a resonance unit (RU) of 51.49 at 1/1,000 of dilution and a RU of 27.61 at 1/10,000 of dilution while, at the same dilution, it present a RU of 27.36 and a RU of 17.99 with R39-R43-biot, respectively (FIG. 1C). However, at higher concentrations, the peptides seems to show no differences in the interactions with aPL. […] Considering that IgG valency, it was decided to generate a dimeric Ib-1-biot peptide (Ib-1-biot-2x). This new polypeptide carries thus two optimized epitopes which have the opportunity to interact with two Fab fragment present on aPL. […] At higher concentration, i.e dilution of 1/100, the avidity for dimeric peptide is 28×more than for the monomeric (FIG. 1D).\nIt was performed a peptide substitution scan of Ib-1-biot VSRGGMRKKKKPLTG (SEQ ID NO: 6) carrying the optimized epitope Ib-1-biot and based on an exchange of the underlined amino acid positions with the 20 main amino acids. The resulting peptide microarrays contained 140 different peptides. It was observed that the peptide substitution of the position n° 1, 2, 12 and 15 have significant influences on the ability to interact with aPL from patients 1, 2, 3, 4 and, in particular, form the plasma pool. Indeed, the substitution of the position 1, 12 or 15 by an Arginine (R) or a Lysine (K) increases the avidity of the peptide for all aPL from patients. […] In this context, the enhancement relative to Ib-1.0-biot-2x of identified peptides was evaluated (FIG. 2A). […] However, streptavidin being known to produce unspecific binding, it was used the ratio between aPL and a pool of human plasma as control (B/B0) (FIG. 2B, upper panel). This representation therefore allows to distinguish the real levels of interactions. It was then performed a dilution assay from dilution of 1/100 to 1/1,200,000 and it was observed relevant differences between the different identified peptides. By comparison of area under the curve (AUC), it was possible to detect the most prone-interacting peptide with aPL. Thus, the peptide IIa-8.0-biot-2x obtained the higher AUC (FIG. 2B, bottom panel). […]"}, "[2]": {"test_system": "aPL (pool from APS patients)", "assay": "Determination of aPL by ELISA on coated peptides / biotinylated peptides (custom immunoassay)", "type": "binding, Human", "experimental": "Determination of aPL by ELISA—MaxiSorp™ 96 well plates (Nunc) or Streptavidin plate (Thermofisher) were coated with 10 μg/ml recombinant domains of β2GP1, peptides or biotinylated-peptide prior to incubation with aPLA. Secondary anti-human antibodies conjugated to IR800CW (Rockland) or HRP were used. Protein- or peptide-bound antibodies were detected and quantified by the Odyssey system (Li-Cor Biosciences) or absorbance in optical densities (OD) was determined at 405 nm (molecular Devices™ Filtermax).\nas §1\nIt was performed a peptide substitution scan of Ib-1-biot VSRGGMRKKKKPLTG (SEQ ID NO: 6) carrying the optimized epitope Ib-1-biot and based on an exchange of the underlined amino acid positions with the 20 main amino acids. The resulting peptide microarrays contained 140 different peptides. It was observed that the peptide substitution of the position n° 1, 2, 12 and 15 have significant influences on the ability to interact with aPL from patients 1, 2, 3, 4 and, in particular, form the plasma pool. Indeed, the substitution of the position 1, 12 or 15 by an Arginine (R) or a Lysine (K) increases the avidity of the peptide for all aPL from patients. […] In this context, the enhancement relative to Ib-1.0-biot-2x of identified peptides was evaluated (FIG. 2A). […] However, streptavidin being known to produce unspecific binding, it was used the ratio between aPL and a pool of human plasma as control (B/B0) (FIG. 2B, upper panel). This representation therefore allows to distinguish the real levels of interactions. It was then performed a dilution assay from dilution of 1/100 to 1/1,200,000 and it was observed relevant differences between the different identified peptides. By comparison of area under the curve (AUC), it was possible to detect the most prone-interacting peptide with aPL. Thus, the peptide IIa-8.0-biot-2x obtained the higher AUC (FIG. 2B, bottom panel). To formally quantify the ability of aPL to interact with IIa-8.0-biot-2x, it was monitored by flowing various concentrations of aPL over a IIa-8.0-biot-2x-coated chip surface (FIG. 2C). […] In FIG. 2C, bottom panel, it can be appreciated more precisely the improvement of the quality of interactions. […]"}}, "note": "Where no end group is shown, it is not given here.", "data": [{"substance": "IIa-8.0-biot-2x: dimeric biotinylated IIa-8.0 peptide; also used associated with streptavidin magnetic beads (RSRGGMRKRKKPLTGRSRGGMRKRKKPLTG; also: dimeric peptide (two IIa-8.0 copies), biotinylated, site not given here)", "values": [{"measurement": "SPR AUC relative to the initial target R39-43", "setting": "[1]", "result": "> 10", "unit": "×"}, {"measurement": "avidity of aPL relative to avidity for Ib-1.0-biot-2x", "setting": "[1]; all dilutions (FIG. 2C upper panel)", "result": 1.3, "unit": "×"}, {"measurement": "SPR AUC relative to Ib-1.0-biot-2x", "setting": "[1]; dilution 1/100 (FIG. 2C bottom panel)", "result": 2.3, "unit": "×"}, {"measurement": "SPR AUC relative to Ib-1.0-biot-2x", "setting": "[1]; dilution 1/1,000 (FIG. 2C bottom panel)", "result": 3.43, "unit": "×"}, {"measurement": "SPR AUC relative to Ib-1.0-biot-2x", "setting": "[1]; dilution 1/10,000 (FIG. 2C bottom panel)", "result": 10.5, "unit": "×"}, {"measurement": "sustained interaction / stability of binding with aPL (shape of SPR curves)", "setting": "[1]; stabilization curves", "result": "sustained stability of binding is also significantly increased"}, {"measurement": "ability to interact with aPL, enhancement relative to Ib-1.0-biot-2x", "setting": "[2]; ELISA, four dilutions of aPL pool (FIG. 2A)", "result": "significantly increased with at least three of the four dilutions"}, {"measurement": "area under the curve (AUC) of dilution assay, B/B0", "setting": "[2]; dilution 1/100 to 1/1,200,000, aPL pool / pool of healthy plasma (FIG. 2B)", "result": "higher AUC"}]}]}
